# Active and inactive are the calls of the source.
# Columns and labels:
# [1] = HepG2 cell cytotoxicity, dose response, cytotoxicity control for Shn3 inhibitor project, CellTiter-Glo, cherry-picked (AID 624134); assay type: functional, cell-based
# [2] = control 3'UTR Renilla luciferase suppression, dose response, counter-screen for Shn3 inhibitor project, cell-based, Clone20-Shn3RL, cherry-picked (AID 624133); assay type: functional
# [3] = molecular target: T1, Heat shock factor protein 1 (Mus musculus, UniProt P38532); experiment: HSF1 potentiators in luciferase reporter cells, confirmation, cell-based, NIH3T3, luminescence, dose retest (AID 435004); assay type: functional;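 further: stress induced by proteasome inhibitor MG132 added 30 min after compound; luciferase reporter driven by HSF1 response element in NIH3T3 cells; actives raise luminescence as potentiators of the MG132 stress response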
# T1 sequence (P38532 whole entry): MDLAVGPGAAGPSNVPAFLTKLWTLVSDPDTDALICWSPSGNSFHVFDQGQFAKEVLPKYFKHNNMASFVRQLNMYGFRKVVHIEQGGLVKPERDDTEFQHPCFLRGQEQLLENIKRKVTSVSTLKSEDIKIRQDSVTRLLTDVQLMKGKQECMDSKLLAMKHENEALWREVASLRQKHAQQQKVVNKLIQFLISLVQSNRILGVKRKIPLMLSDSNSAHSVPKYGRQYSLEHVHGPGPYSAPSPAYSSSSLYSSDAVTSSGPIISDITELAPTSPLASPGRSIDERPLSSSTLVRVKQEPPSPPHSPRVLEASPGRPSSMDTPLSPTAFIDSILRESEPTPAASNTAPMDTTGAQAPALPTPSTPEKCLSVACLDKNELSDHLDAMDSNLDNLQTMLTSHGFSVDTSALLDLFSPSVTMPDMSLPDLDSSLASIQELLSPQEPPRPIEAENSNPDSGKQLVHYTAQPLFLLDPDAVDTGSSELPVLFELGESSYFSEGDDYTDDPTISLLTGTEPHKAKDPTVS
# [4] = molecular target: Heat shock protein HSP 90-alpha (Homo sapiens, UniProt P07900); assay type: functional, organism-based
# [5] = molecular target: T2, Estrogen receptor (Homo sapiens, UniProt P03372);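 further: potency for inhibiting coactivator peptide recruitment to the receptor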
# T2 sequence (P03372 whole entry): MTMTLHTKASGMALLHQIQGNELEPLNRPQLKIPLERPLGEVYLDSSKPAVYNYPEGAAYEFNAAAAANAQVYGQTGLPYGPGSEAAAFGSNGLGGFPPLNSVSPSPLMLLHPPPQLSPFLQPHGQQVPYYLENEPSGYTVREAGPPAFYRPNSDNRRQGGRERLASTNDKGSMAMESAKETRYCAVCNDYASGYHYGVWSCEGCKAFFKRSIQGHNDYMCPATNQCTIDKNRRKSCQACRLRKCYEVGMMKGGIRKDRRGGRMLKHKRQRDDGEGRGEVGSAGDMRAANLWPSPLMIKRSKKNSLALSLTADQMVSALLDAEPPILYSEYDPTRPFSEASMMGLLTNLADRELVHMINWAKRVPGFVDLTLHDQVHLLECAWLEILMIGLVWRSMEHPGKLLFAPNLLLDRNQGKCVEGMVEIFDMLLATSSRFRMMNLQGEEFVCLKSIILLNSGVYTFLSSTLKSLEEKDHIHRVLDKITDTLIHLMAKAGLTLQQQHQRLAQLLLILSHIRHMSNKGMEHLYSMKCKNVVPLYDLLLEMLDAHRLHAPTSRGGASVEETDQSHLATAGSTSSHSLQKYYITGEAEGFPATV
# [6] = molecular target: T3, High affinity choline transporter 1 (Homo sapiens, UniProt Q9GZV3); experiment: CHT inhibitors, dose response, cell-based, 5-point CRC, membrane potential dye (AID 504840); assay type: functional
# T3 sequence (Q9GZV3 whole entry): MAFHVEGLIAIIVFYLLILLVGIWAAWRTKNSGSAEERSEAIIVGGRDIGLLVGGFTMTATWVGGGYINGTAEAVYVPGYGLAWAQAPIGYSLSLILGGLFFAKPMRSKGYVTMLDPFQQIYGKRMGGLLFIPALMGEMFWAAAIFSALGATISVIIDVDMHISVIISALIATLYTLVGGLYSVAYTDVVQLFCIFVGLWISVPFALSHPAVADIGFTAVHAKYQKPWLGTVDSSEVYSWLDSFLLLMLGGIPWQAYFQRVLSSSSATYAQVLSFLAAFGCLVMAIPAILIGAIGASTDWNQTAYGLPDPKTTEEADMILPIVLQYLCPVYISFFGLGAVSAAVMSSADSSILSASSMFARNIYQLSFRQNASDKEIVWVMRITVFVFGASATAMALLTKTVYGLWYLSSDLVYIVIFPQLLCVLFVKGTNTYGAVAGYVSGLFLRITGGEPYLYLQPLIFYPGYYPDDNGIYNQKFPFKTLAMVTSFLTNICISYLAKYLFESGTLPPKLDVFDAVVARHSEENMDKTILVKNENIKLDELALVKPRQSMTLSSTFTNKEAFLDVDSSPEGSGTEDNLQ
# [7] = Shn3 3'UTR reporter inhibitors, dose response, cell-based, Clone20 osteoblasts, firefly luciferase, cherry-picked (AID 624132); assay type: functional;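 further: firefly luciferase luminescence from reporter carrying the Shn3 3'UTR in osteoblasts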
# [8] = molecular target: Genome polyprotein (dengue virus type 2, UniProt P29990); experiment: Dengue-2 NS5 methyltransferase inhibitors, primary screen, biochemical, confirmation dose response (AID 588689); assay type: functional
# Chain of Genome polyprotein (P29990 2492-3391 limits assumed): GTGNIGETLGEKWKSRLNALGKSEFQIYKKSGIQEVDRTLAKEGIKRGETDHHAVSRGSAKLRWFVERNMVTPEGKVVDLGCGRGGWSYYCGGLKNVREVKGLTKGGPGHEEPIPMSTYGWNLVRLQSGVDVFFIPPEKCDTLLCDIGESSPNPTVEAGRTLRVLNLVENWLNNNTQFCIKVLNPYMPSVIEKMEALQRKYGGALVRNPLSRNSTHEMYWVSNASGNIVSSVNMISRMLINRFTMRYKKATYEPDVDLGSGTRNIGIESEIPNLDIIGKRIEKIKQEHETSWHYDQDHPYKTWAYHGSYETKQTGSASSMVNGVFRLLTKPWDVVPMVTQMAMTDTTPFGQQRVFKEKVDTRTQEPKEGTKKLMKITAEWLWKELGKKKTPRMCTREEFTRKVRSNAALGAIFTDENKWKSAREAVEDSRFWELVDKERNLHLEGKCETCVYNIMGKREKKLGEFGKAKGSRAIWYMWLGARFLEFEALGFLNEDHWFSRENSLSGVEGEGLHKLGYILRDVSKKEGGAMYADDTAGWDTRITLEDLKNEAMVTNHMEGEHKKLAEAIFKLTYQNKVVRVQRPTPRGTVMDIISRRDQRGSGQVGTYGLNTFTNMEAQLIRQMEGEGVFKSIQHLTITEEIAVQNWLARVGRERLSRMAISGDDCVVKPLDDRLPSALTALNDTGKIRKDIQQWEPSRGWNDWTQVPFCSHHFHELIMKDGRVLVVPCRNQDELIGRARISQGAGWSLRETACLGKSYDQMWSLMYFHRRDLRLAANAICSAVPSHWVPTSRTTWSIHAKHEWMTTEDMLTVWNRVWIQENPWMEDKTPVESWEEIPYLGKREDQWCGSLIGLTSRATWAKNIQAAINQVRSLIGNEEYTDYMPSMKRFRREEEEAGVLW
# [9] = molecular target: T4, Fatty acid synthase (Homo sapiens, UniProt P49327); experiment: FAS thioesterase domain inhibitors, dose response, biochemical, kinetic fluorescence intensity (AID 624326); assay type: functional;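 further: rate of fluorescence rise from hydrolysis of a fluorogenic O-methyl fluorescein ester substrate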
# T4 sequence (P49327 whole entry, the tested form may be a part): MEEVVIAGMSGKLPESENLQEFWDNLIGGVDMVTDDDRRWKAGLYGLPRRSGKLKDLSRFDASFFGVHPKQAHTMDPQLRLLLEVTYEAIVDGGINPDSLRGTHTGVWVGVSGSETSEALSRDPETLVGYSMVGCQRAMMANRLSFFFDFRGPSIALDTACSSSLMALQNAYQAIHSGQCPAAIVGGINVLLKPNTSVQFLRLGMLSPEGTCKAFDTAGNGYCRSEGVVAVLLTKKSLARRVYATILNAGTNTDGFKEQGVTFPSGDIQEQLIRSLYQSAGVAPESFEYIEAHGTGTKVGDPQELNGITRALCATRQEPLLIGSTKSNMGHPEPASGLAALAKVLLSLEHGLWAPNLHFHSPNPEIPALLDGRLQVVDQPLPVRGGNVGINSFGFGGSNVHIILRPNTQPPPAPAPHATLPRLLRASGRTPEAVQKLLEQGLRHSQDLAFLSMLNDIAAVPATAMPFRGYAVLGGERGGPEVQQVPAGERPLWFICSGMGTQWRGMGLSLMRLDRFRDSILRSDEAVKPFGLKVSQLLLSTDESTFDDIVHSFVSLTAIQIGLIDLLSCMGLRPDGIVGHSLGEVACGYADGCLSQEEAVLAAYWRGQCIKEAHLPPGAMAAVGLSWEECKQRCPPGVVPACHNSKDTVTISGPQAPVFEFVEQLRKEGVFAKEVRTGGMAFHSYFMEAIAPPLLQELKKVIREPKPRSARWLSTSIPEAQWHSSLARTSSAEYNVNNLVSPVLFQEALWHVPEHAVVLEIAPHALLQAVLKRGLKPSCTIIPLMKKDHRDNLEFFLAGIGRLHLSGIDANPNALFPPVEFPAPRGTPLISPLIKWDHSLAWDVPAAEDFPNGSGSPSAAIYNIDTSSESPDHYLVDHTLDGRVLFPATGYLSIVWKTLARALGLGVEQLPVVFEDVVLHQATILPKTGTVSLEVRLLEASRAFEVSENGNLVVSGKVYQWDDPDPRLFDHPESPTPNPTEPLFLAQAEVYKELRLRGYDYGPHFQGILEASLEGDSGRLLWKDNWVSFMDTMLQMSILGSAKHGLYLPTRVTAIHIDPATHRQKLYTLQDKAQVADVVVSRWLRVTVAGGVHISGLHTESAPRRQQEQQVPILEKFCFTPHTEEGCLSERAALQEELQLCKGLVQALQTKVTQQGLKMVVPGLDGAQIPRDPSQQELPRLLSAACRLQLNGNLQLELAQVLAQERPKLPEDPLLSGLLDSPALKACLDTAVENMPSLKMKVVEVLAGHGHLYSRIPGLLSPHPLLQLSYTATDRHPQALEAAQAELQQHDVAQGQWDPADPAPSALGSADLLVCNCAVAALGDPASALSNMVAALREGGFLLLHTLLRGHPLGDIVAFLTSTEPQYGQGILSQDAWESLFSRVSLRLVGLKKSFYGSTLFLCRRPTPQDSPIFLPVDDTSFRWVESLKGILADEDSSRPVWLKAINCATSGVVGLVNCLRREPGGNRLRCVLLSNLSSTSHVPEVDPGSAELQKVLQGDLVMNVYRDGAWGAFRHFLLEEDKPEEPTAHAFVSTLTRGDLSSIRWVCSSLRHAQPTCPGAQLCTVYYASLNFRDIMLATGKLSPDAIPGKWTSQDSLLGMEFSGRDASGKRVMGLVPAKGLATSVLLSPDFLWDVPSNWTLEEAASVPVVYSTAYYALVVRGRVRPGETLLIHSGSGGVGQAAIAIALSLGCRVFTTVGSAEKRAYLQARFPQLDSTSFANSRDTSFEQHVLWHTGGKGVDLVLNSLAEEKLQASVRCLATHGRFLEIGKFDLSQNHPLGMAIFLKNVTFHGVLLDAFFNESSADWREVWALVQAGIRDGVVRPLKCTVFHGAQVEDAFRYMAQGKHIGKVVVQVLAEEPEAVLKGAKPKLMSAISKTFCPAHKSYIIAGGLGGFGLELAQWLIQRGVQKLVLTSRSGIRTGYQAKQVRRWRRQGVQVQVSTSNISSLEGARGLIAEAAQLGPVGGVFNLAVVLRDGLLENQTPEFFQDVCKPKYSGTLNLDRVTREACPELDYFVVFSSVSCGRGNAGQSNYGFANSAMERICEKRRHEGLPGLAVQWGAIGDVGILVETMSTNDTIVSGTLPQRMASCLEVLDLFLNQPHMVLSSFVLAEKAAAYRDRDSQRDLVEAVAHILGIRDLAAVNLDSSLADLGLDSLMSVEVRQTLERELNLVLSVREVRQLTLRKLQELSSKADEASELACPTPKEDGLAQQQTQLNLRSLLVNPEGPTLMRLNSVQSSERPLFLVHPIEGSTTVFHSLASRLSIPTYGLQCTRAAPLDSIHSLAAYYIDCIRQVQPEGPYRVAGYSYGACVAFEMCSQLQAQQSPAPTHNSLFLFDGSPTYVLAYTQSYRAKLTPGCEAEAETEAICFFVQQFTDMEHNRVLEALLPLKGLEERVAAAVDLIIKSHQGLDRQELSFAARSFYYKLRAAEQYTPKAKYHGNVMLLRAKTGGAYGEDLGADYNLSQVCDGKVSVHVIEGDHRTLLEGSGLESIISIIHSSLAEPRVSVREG
# [10] = molecular target: T4, Fatty acid synthase; experiment: FAS thioesterase domain inhibitors, dose response, biochemical, endpoint fluorescence intensity, uHTS hits (AID 624327); assay type: functional;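 further: fluorescence from hydrolysis of an O-methyl fluorescein acyl ester substrate by the enzyme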
# [11] = test system: INS1; experiment: beta cell apoptosis inhibitors, cytokine rescue, dose response, luminescence, retest (AID 449756); assay type: functional, cell-based; conditions: Rattus norvegicus;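 further: cell death triggered by IL-1 beta plus TNF-alpha plus IFN-gamma mixture; protective hits raise ATP signal compared with cytokine alone wells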
# [12] = intracellular Trypanosoma cruzi inhibitors in host cells – cell-based, plate reader, cherry-pick samples, set 3, dose response (AID 651818); assay type: functional;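 further: compounds incubated with infected cells for about four days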
# [13] = molecular target: Induced myeloid leukemia cell differentiation protein Mcl-1 (Homo sapiens, UniProt Q07820); assay type: functional
# Chain of Induced myeloid leukemia cell differentiation protein Mcl-1 (Q07820 whole entry): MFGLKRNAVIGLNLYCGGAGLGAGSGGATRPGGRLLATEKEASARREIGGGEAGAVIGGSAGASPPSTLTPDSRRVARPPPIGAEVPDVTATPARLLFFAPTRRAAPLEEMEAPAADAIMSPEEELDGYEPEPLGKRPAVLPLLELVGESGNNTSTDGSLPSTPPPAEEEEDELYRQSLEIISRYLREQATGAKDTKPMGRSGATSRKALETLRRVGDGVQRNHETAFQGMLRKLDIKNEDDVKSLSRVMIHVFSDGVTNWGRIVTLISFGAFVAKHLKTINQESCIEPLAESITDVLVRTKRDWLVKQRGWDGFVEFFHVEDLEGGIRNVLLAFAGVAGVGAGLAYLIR
# [14] = inhibitors of firefly luciferase expression or activity, dose response, H4 neuroglioma cells, luminescence (AID 1990); assay type: functional, cell-based
# [15] = molecular target: Large T antigen (Simian virus 40, UniProt P03070); assay type: functional, Betapolyomavirus macacae;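 further: Confirmatory-stage PubChem screen for compounds that inhibit SV40 T antigen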
# Chain of Large T antigen (P03070 whole entry): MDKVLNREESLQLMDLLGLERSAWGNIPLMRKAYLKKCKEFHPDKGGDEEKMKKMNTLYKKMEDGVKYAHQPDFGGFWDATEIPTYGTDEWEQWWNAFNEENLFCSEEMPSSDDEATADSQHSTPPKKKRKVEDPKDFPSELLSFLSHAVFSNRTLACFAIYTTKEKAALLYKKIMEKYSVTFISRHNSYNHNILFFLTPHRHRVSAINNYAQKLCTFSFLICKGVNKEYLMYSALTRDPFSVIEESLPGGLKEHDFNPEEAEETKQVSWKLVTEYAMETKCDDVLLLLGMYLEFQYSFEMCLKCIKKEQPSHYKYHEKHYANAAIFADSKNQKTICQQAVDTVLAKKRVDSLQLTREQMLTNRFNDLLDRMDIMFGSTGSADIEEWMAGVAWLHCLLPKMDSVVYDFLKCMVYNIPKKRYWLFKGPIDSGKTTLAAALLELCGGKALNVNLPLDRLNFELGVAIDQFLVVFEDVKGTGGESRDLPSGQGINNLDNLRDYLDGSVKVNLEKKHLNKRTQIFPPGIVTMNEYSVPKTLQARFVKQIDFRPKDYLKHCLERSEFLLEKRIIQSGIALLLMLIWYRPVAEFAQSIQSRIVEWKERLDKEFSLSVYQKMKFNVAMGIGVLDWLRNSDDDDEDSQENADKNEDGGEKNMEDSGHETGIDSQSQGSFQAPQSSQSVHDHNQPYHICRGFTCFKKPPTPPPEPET
# [16] = inhibitors of SNCA 5'UTR-driven reporter translation, confirmation, H4 neuroglioma cells, luminescence (AID 1988); assay type: functional, cell-based
# [17] = Luminescence Cell-Based Dose Response HTS to Identify Inhibitors of 5'UTR Stem-Loop Driven Prion Protein mRNA Translation in H4 Neuroglioblastoma Cells. [Related pubchem assays: 1827 (Project Summary), 1813 (Primary HTS)]; assay type: functional
smiles,measurement,setting,value
COc1ccc(-c2nnn(CC(=O)Nc3ccc4c(c3)OCCO4)n2)cc1OC,AC50,[1],> 70 µM (inactive)
same,AC50,[2],21.2 µM (active)
COc1ccccc1NS(=O)(=O)c1cc(C(=O)N2CC(C)CC(C)C2)ccc1C (stereo not drawn),EC50,[3],> 260 µM (inactive)
same,AC50,[4],5.54 µM (active)
Cc1ccc(-n2nnnc2SCC(=O)Nc2cccc(NC(=O)c3ccco3)c2)cc1C,IC50,[5],14.9 µM (active)
CCC(C)c1ccc(NC(S)=NCc2ccccn2)cc1 (stereo not drawn),IC50,[6],13.2 µM (active)
COc1cccc(C2CC(c3ccc(C)cc3)=NN2C(=O)c2ccccc2F)c1OC (stereo not drawn),AC50,[7],36 µM (active)
same,AC50,[2],30.4 µM (active)
CC(C)CCNc1nc(N)c([N+](=O)[O-])c(N2CCCCCC2)n1,AC50,[1],47.5 µM (active)
same,AC50,[7],8.79 µM (active)
same,AC50,[2],5.43 µM (active)
CCOc1ccc(C(c2c(O)n(C)c(SC)nc2=O)c2c(O)n(C)c(SC)nc2=O)cc1,IC50,[8],43 µM (active)
O=c1oc(-c2ccccc2F)nc2scc(-c3ccccc3)c12,IC50,[9],0.638 µM (active)
same,IC50,[10],1.19 µM (active)
O=C(/C=C/c1cccc([N+](=O)[O-])c1)NCc1ccc2c(c1)OCO2,IC50,[9],2.72 µM (active)
same,IC50,[10],2.33 µM (active)
COCCCNC(=O)c1ccc2c(=O)n(Cc3ccc4c(c3)OCO4)c(=S)[nH]c2c1,IC50,[5],42 µM (not active)
COc1ccc(CNC(=O)c2cc(-c3cccs3)on2)cc1,IC50,[5],27.7 µM (active)
CSc1nc(O)c(C(c2ccc(O)cc2)c2c(O)nc(SC)nc2O)c(O)n1,IC50,[8],46.7 µM (active)
O=C(Cn1c(=O)n(Cc2ccco2)c(=O)c2c3c(sc21)CCCCC3)c1ccccc1,IC50,[5],> 50 µM (not active)
CCn1c(SCC(=O)Nc2ccc(NC(=O)c3ccco3)c(OC)c2)nc2ccccc2c1=O,IC50,[5],35.8 µM (not active)
CC(C)COc1ccc(C(=O)N/C(=C/c2cccc([N+](=O)[O-])c2)C(=O)O)cc1,IC50,[9],9.3 µM (active)
same,IC50,[10],14.2 µM (active)
O=S(=O)(c1ccc(Cl)cc1)N1CCN(c2ncnc3sccc23)CC1,AC50,[1],32.2 µM (active)
same,AC50,[7],3.04 µM (active)
same,AC50,[11],5.44 µM (active)
same,AC50,[2],5.25 µM (active)
Cc1cc([N+](=O)[O-])c(NCCCCCCO)c([N+](=O)[O-])c1,IC50,[6],12.6 µM (active)
C[C@H](CO)N1C[C@H](C)[C@@H](CN(C)Cc2ccc(-c3ccccc3)cc2)Oc2c(NC(=O)c3ccncc3)cccc2C1=O,AC50,[12],0.08 µM (active)
F[B-](F)(F)c1cc2cc(Br)ccc2s1,AC50,[4],4.02 µM (active)
Cc1cccc(C)c1NC(=O)CN(C)C(=O)c1cccc(S(=O)(=O)N2CCN(c3ccc(F)cc3)CC2)c1,AC50,[1],> 70 µM (inactive)
same,AC50,[7],2.2 µM (active)
same,AC50,[2],13 µM (active)
COc1ccc(NS(=O)(=O)c2ccc(C(=O)N3CCCCCC3)cc2)cc1,AC50,[1],48.4 µM (active)
same,AC50,[7],4.51 µM (active)
same,AC50,[2],9.07 µM (active)
O[C@H]1C[C@H](c2ccc(Cl)cc2)N(CC2CCCCC2)C[C@@H]1n1cc(C2CC2)nn1,IC50,[9],13.1 µM (active)
same,IC50,[10],12 µM (active)
C[C@@H]1CCCCO[C@@H](CN(C)Cc2ccc(Cl)c(Cl)c2)[C@@H](C)CN([C@H](C)CO)C(=O)c2cc(NC(=O)Cc3ccccc3)ccc2O1,AC50,[12],4.04 µM (active)
COc1ccc(S(=O)(=O)N(C)C[C@H]2Oc3ccc(NC(=O)Nc4cccc5ccccc45)cc3C(=O)N([C@@H](C)CO)C[C@H]2C)cc1,AC50,[12],4.38 µM (active)
C[C@@H]1CN([C@@H](C)CO)C(=O)c2cccc(NC(=O)c3nc4ccccc4s3)c2O[C@@H]1CN(C)Cc1ccccc1,AC50,[12],4.84 µM (active)
C[C@@H]1CCCCO[C@H](CN(C)C(=O)Nc2ccc(C(F)(F)F)cc2)[C@@H](C)CN([C@H](C)CO)C(=O)c2cc(NC(=O)CCC(F)(F)F)ccc2O1,AC50,[12],3.67 µM (active)
C[C@@H]1CCCCO[C@@H](CN(C)Cc2ccc(C(=O)Nc3ccccc3N)cc2)[C@@H](C)CN([C@H](C)CO)C(=O)c2cc(NS(=O)(=O)c3ccc(Cl)cc3)ccc2O1,AC50,[12],3.39 µM (active)
C[C@@H]1CN([C@H](C)CO)C(=O)Cc2cc(NC(=O)Nc3ccc4c(c3)OCO4)ccc2O[C@H]1CN(C)CC1CCCCC1,AC50,[12],7 µM (active)
C[C@@H]1CN([C@H](C)CO)C(=O)Cc2cc(NS(=O)(=O)c3ccc(Cl)cc3)ccc2O[C@@H]1CN(C)Cc1ccc(-c2ccccc2)cc1,AC50,[12],2.76 µM (active)
Cc1[nH]n(-c2ccccc2)c(=O)c1N=Nc1ccccc1C(=O)O,IC50,[8],58 µM (active)
C=CCOC(=O)C1=C(C)N=c2s/c(=C3\C(=O)N(CC(=O)O)c4ccccc43)c(=O)n2C1c1ccc(OC)cc1 (stereo not drawn),IC50,[13],3 µM (active)
same,EC50,[14],> 120 µM (not active)
same,IC50,[15],49.1 µM (active)
same,EC50,[16],74 µM (active)
same,EC50,[17],> 120 µM (not active)
same,IC50,[8],59.4 µM (active)
CCCCSc1nnc2c(n1)[nH]c1ccccc12,IC50,[5],> 50 µM (not active)
